Reference: patent US20260284009A1, “COMPOUNDS FOR NOS-RELATED CANCERS AND METHODS OF USE” (YISSUM RESEARCH DEVELOPMENT COMPANY OF THE HEBREW …, priority 2023, published 2026)

Experiments:
[1] = tested on: SH-SY5Y cells; assay: Clonogenic survival assay in SH-SY5Y cells; format: cell-based, human; details: 7-NI, 14 days
Description: Cells were seeded into 6-well plates at concentrations of 500/well or 1000/well in triplicates. After 24 hours, 7-NI was added, or cells were transiently transfected with siRNA-nNOS, as described above (SEQ ID NO: 4), before changing to serum-containing medium. Cells were incubated for 14 days to form visible colonies. Colonies were stained with crystal violet, washed with PBS, air-dried, and imaged. The colonies were visualized using ImageJ software. Cell colonies of greater than 50 cells were identified and counted.

[2] = tested on: U87-MG cells; assay: Western blots of 3-Ntyr, CD-70, iNOS and nNOS in U87-MG cells; format: cell-based, human; details: western blot, 100 μM 7-NI, 500 or 1000 μM L-NIL, n=3
Description: In FIGS. 12A-12D, for quantitative analysis data, all individual data series are presented as biological replicates (n=3) for all groups. Data are expressed as the mean±SEM.
FIG. 12A: Representative western blots of 3-Ntyr and β-actin levels in U87-MG cells following administration of the control, 0.1% DMSO (“Vehicle”), or 100 μM 7-NI (“7-NI”).
FIG. 12B: Quantitative analysis of 3-Ntyr levels for the experiments of FIG. 12A.
FIG. 12C: Representative western blots of 3-Ntyr and β-actin levels in U87-MG cells following administration of the control, 500 μM L-NIL (“L-NIL 500”), or 1000 μM L-NIL (“L-NIL 1000”).
FIG. 12D: Quantitative analysis of 3-Ntyr levels for the experiments of FIG. 12C.
In FIGS. 13A-13B, for quantitative analysis data, all individual data series are presented as biological replicates (n=3) for all groups. Data are expressed as the mean±SEM.
FIG. 13A: Representative western blots of CD-70 and β-actin levels in U87-MG cells following administration of the control, 0.1% DMSO (“Vehicle”), 100 μM 7-NI (“7-NI”), 500 μM L-NIL (“L-NIL 500”), or 1000 μM L-NIL (“L-NIL 1000”).
FIG. 13B: Quantitative analysis of CD-70 levels for the experiments of FIG. 13A.
In FIGS. 14A-14B, for quantitative analysis data, all individual data series are presented as biological replicates (n=3) for all groups. Data are expressed as the mean±SEM.
FIG. 14A: Representative western blots of iNOS and β-actin levels in U87-MG cells following administration of the control, 0.1% DMSO (“Vehicle”), 100 μM 7-NI (“7-NI”), 500 μM L-NIL (“L-NIL 500”), or 1000 μM L-NIL (“L-NIL 1000”).
FIG. 14B: Quantitative analysis of iNOS levels for the experiments of FIG. 14A.
In FIGS. 15A-15B, for quantitative analysis data, all individual data series are presented as biological replicates (n=3) for all groups. Data are expressed as the mean±SEM.
FIG. 15A: Representative western blots of nNOS and β-actin levels in U87-MG cells following administration of the control, 0.1% DMSO (“Vehicle”), 100 μM 7-NI (“7-NI”), 500 μM L-NIL (“L-NIL 500”), or 1000 μM L-NIL (“L-NIL 1000”).
FIG. 15B: Quantitative analysis of nNOS levels for the experiments of FIG. 15A.

[3] = tested on: SH-SY5Y cells; assay: NADPH-diaphorase staining of SH-SY5Y cells; format: cell-based, human; details: 7-NI treated vs untreated group
Description: Human neuroblastoma (“NB”) SH-SY5Y cells were obtained from the American Type Culture Collection (ATCC) and maintained in Dulbecco's modified Eagle's medium (DMEM) and Ham's F-12 (1:1) supplemented with 10% fetal bovine serum, 2 mM L-glutamine, and 100 U/ml penicillin-G/[…] streptomycin in the humidified atmosphere (37° C., 5% CO2). Cells were plated onto 25 cm^2 and 75 cm^2 at a density of […] respectively for Western blotting (WB) and 1×10^5 for immunofluorescence. The SH-SY5Y cells were treated with 100 μM 7-nitroindazole (7-NI) for 24 hr. This concentration was confirmed in the dose-response experiment (FIG. 1) using an MTT viability assay.
NADPH diaphorase staining were done using NBT as a chromogen and […] as a reductant to detect cells with NOS activity. Cells were cultured and treated as described previously in the immunofluorescence section. Then cells were fixed with 4% PFA for 30 min at room temperature in dark. After fixation, the cells were washed 2 times with PBS and then incubated in 0.2% Triton X-100 (in phosphate buffer) for 10 min. The cells were then incubated in […] NBT-NADPH solution for 2 h at 37C. The cells were washed twice with PBS and permanently mounted with DPX. Images were analyzed with a Nikon confocal TL microscope. […]

[4] = tested on: SH-SY5Y cells; assay: NADPH-diaphorase activity in cell lysates of SH-SY5Y cells; format: cell-based, human; details: 100 μM 7-NI or 20 nM siRNA (SEQ ID NO: 4), absorbance at 585 nm normalized for total protein, n=3
Description: In FIGS. 2A-2C, for quantitative analysis absorbance at 585 nm was normalized for total protein. Data are expressed as the mean±SEM. Statistical significance was determined using a One-way ANOVA followed by Fisher's LSD multiple comparison post hoc test. *P<0.05 and **P<0.01.
FIG. 2A: Quantitative analysis of NADPH-diaphorase activity in cell lysates of SH-SY5Y cells following the administration of the control (“SH-SY5Y”) (n=3), 0.1% DMSO (“SH-SY5Y+NC”) (n=3), 100 μM 7-NI (“SH-SY5Y+7-NI”) (n=3), or 20 nM siRNA (SEQ ID NO: 4) (“SH-SY5Y+si-nNOS”) (n=3).
FIG. 2C: Representative images of cultured SH-SY5Y cells stained for NADPH-diaphorase activity.

[5] = tested on: U87-MG human glioblastoma cell line; assay: 3-Ntyr levels in U87-MG cells after treatment; format: cell-based; details: compared to the control, not significant (FIGS. 12C-12D)
[6] = tested on: CD70; assay: CD70 expression level in U87-MG cells; format: cell-based, human; details: both the lower and higher doses, compared to the control; not statistically significant (FIG. 13)

| Structure (SMILES) | number of colonies [1] | 3-Ntyr (nitrotyrosine) levels [2] | cluster of differentiation 70 (CD-70) levels [2] | inducible nitric oxide synthase (iNOS) levels [2] | neuronal nitric oxide synthase (nNOS) levels [2] | NADPH diaphorase staining [3] | NADPH-diaphorase activity [4] | 3-Ntyr levels ([5]; higher dose) | 3-Ntyr levels ([5]; lower dose) | expression level of CD70 [6] |
| --- | --- | --- | --- | --- | --- | --- | --- | --- | --- | --- |
| O=[N+]([O-])c1cccc2cn[nH]c12 [7-NI, 7-nitroindazole] | decrease | significant decrease | did not lead to significant changes | did not lead to significant changes | did not lead to significant changes | decreased | significant decrease | – | – | – |
| CC(=N)NCCCC[C@H](N)C(=O)O [L-NIL, N^6-(1-iminoethyl)-L-lysine] | – | did not result in a significant decrease | did not lead to significant changes | did not lead to significant changes | did not lead to significant changes | – | – | reduced | slightly increased | slightly decreased |
